Data set [1] relates to S6K1 (Thr389) phosphorylation (mTORC1 activity) in FKBP12 knock-out 293T cells. Description: Inhibition of S6K1 (Thr389) phosphorylation in FKBP12 knock-out 293T cells (ELISA). The data set is classed as cell-based, human. In short, it runs like this: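 CRISPR-generated FKBP12 knock-out HEK293T cells, alongside wild-type, were treated in duplicate for 2 hours at 37 °C with an 8–11-point dose range (0.001 pM–10 μM). Phospho-S6K1 Thr389 quantified by ELISA as an mTORC1 activity read-out, with DMSO as negative control.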

In data set [2] the test system is S6K1 (Thr389) phosphorylation (mTORC1 activity) in wild-type (WT) 293T cells. Briefly: Inhibition of S6K1 (Thr389) phosphorylation in wild-type 293T cells (ELISA). The class given is cell-based, human. The following applies: for extent of inhibition of S6K1 (Thr389) phosphorylation: with increasing concentrations. The gist of the method:
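WT 293T cells in DMEM + 10% FBS, grown 24 h to ~80% confluence, then treated 2 h at 37 °C in duplicate with compounds over an 8–11-point range from 0.001 pM to 10 μM. DMSO vehicle served as negative control. Phospho-S6K1 (Thr389) measured by ELISA.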

Data set [3] in a line: Pharmacokinetic studies in male CD-1 mice (plasma, IV and PO). Particulars: for clearance / Vd / bioavailability / half-life / Cmax / concentration at 8 h / concentration at 24 h: male; for clearance / Vd / bioavailability: CD-1, plasma, mouse; for clearance / Vd / half-life: IV 2 mg/kg; for clearance: read-out: CI(mL/min/kg), compounds clearance following IV administration; for Vd: read-out: Vdss (L/kg), volume of distribution following IV administration; for bioavailability: PO 10 mg/kg vs IV 2 mg/kg; for half-life / Cmax / concentration at 8 h / concentration at 24 h: CD-1; for half-life / Cmax / concentration at 8 h / concentration at 24 h / IV plasma half-life (T1/2): mouse plasma; for half-life: read-out: IV T1/2 (converted); for Cmax / concentration at 8 h / concentration at 24 h: PO 10 mg/kg; for concentration at 8 h: read-out: Compound concentration at 8-hour, PO administration; for concentration at 24 h: read-out: Compound concentration at 24-hour, PO administration. The class given is in vivo, mouse. Here is the method:
Animal experiments were carried out at Wuxi AppTec. Male 6-8 weeks old CDI mice were obtained from Hilltop Labs. Following arrival at Wuxi AppTec, mice were housed in animal rooms with environmental control (temperature: 20 to 26° C.; lighting: 12 hour light/dark cycle). Mice were fed with certified pellet diet (Certified Rodent Diet #5002 by LabDiet). Water was provided to the animals ad libitum. Mice were acclimated to the facility for at least 3 days prior to starting experiments.
Appropriate amount of test article formulated in 5% ethanol, 5% Tween-80 and 5% PEG-400, 85% water. Formulation was prepared on the day of dosing and dosed within 2 hours following preparation of formulations. Dose accuracy was determined by LC-MS/MS.
Dose formulation(s) were administered following facility SOPs. Dose volumes were determined individually prior to dosing based on animals' body weights.
About 40 μL of blood samples were collected via peripheral veins (e.g. saphenous veins) at each pre-defined time point. Blood samples were collected into tubes containing K2EDTA as anti-coagulant and kept on ice until centrifugation.
Blood samples were centrifuged at 4° C., 3000 g for 5 min within half an hour of collection. Plasma was transferred into polypropylene tubes or 96-well plates, promptly frozen on dry ice and stored at −70±10° C. until analysis by LC-MS/MS.
Test compound concentration in mouse plasma was determined with LC-MS/MS method using a calibration curve with at least 6 non-zero calibration standards.
The pharmacokinetics (PK) of the test article was analyzed using Phoenix WinNonlin software (version 8.3) and non-compartmental analysis model. Derived PK parameters include, but not limited to, C0, CLp, Vdss, Cmax, Tmax, T1/2, AUC(0-t), AUC(0-inf), MRT(0-t), MRT(0-inf) and % F (bioavailability).

SMILES strings stand for the structures. Where “and” joins values, the source holds several entries; their conditions need not be identical. Identical values can stand only once. Entries after “also recorded” stand apart in the source; their conditions may differ.

For the compound `COCCN(c1ccccc1)C1C[C@@H]2CC[C@@H](C)[C@@](O)(O2)C(=O)C(=O)N2CCCC[C@H]2C(=O)OC([C@H](C)CC2CC[C@@H](O)C(OC)C2)CC[C@H](C)/C=C(\C)C(O)C(OC)C(=O)[C@H](C)C[C@H](C)/C=C/C=C/C=C/1C` (stereo partly drawn) [Compound 69, (3S,6S,7E,9R,10R,12R,14S,15E,17E,19E,23S,26R,27R,34aS)-9,27-dihydroxy-3-((R)-1-((1S,3R,4R)-4-hydroxy-3-methoxycyclohexyl)propan-2-yl)-10-methoxy-21-((2-methoxyethyl)(phenyl)amino)-6,8,12,14,20,26-hexamethyl-5,6,9,10,12,13,14,21,22,23,24,25,26,27,32,33,34,34a-octadecahydro-3H-23,27-epoxypyrido[2,1-c][1]oxa[4]azacyclohentriacontine-1,11,28,29(4H,31H)-tetraone], the “fold less potent compared with RAD001” value in data set [1] (FKBP12 knock-out cells, at similar level of inhibition) is “about 3000 fold”. The inhibition (commonly how much of the control response was suppressed) at 10 µM in data set [1] (Homo sapiens, HEK-293T, FKBP12 knock-out cells, 10 μM (highest tested concentration)) is roughly 30%. For the same compound, in data set [1] (wild-type versus FKBP12 knock-out cells), the “selectivity for FKBP12 compared with RAD001 (in words)” value is “more selective than RAD001”. The half-maximal inhibitory concentration (IC50) (usually the concentration that gives 50% inhibition) in data set [2] (Homo sapiens, HEK-293T, 2 h, wild-type 293T cells, 2 hours treatment) turned out to be 1.53 nM. Moreover, in data set [2] (wild-type cells), the “fold lower potency compared with RAD001 (by IC50)” value was 4 fold and the “extent of inhibition of S6K1 (Thr389) phosphorylation” value is given as “near complete inhibition”. In data set [3], the clearance worked out at 0.176 mL/min/kg; the Vd amounted to 0.228 L/kg; the bioavailability (commonly dose-corrected exposure relative to a reference, in per cent) turned out to be 30.7%; the half-life was 15.5 h. Moreover, in data set [3], the Cmax (usually the maximum level reached in the sampled fluid or tissue) is 12900 ng/mL, the concentration at 8 h amounted to 10000 ng/mL, the concentration at 24 h was 4670 ng/mL and the “IV plasma half-life (T1/2)” value was found to be 15.5 h.
As for `CO[C@H]1C[C@@H]2CC[C@@H](C)[C@@](O)(O2)C(=O)C(=O)N2CCCC[C@H]2C(=O)O[C@H]([C@H](C)C[C@@H]2CC[C@@H](OCCO)[C@H](OC)C2)CC(=O)[C@H](C)/C=C(\C)[C@@H](O)[C@@H](OC)C(=O)[C@H](C)C[C@H](C)/C=C/C=C/C=C/1C` [RAD001, everolimus, reference compound], in data set [1] (FKBP12 knock-out 293T cells, concentration not given), the S6K1 inhibition achieved result is given as “about 50%”. Moreover, in data set [1] (FKBP12 knock-out cells), the “concentration achieving 30% inhibition of S6K1 (Thr389) phosphorylation” value is roughly 3.0 nM, the “concentration achieving ~40% of S6K1 (Thr389) inhibition” value was 447 nM and the “inhibition of S6K1 (Thr389) phosphorylation in the absence of FKBP12 (in words)” value is given as “inhibited the mTORC1 signaling in a dose dependent manner”. Moreover, the “inhibition of S6K1 phosphorylation” value in data set [1] (FKBP12 knock-out cells, 100 nM, 0.1 µM) is reported as roughly 35%. For the same compound, in data set [1] (FKBP12 knock-out cells, 10 μM (highest tested concentration), 10 µM), the “inhibition of S6K1 (Thr389) phosphorylation” value was ~80% and ~70% and 42% and 45% and 58% and 73.5% and 62% and ~60%. Moreover, the inhibition at 0.1 µM in data set [1] (Homo sapiens, HEK-293T, FKBP12 knock-out cells, 100 nM) is roughly 30%. The compound also showed an IC50 in data set [1] (Homo sapiens, HEK-293T, FKBP12 knock-out 293T cells) of 31.3 nM. Further, the “extent of inhibition of S6K1 (Thr389) phosphorylation” value in data set [2] (wild-type cells) is recorded as “completely inhibit; also recorded: near complete inhibition”. Also, in data set [3], the clearance is 0.934 mL/min/kg, the Vd stood at 0.433 L/kg, the bioavailability was determined as 26% and the half-life was 5.85 h. Further, in data set [3], the peak level (Cmax) was 7220 ng/mL, the concentration at 8 h amounted to 1960 ng/mL, the concentration at 24 h was 273 ng/mL and the “IV plasma half-life (T1/2)” value came out at 5.85 h.

Source of the values: US20240360153A1 (Regeneron Pharmaceuticals, Inc., priority 2023, published 2024).
